Structures can show the parent of a compound that is named as a salt.
Columns and labels:
[1] = system: cholesterol synthesis (liver slices of rat); assay: lipid biosynthesis by tissue slices of liver of rat: cholesterol synthesis; assay type: cell-based; conditions: 10 μg/ml, percentage to the control; for activity at 10 µg/mL: Rattus norvegicus, 2 h, read-out: Cholesterol Synth.; for Cholesterol Synth.: 120 min
Method: (§1) 5) Action of the compounds of the present invention to lipid biosynthesis by tissue slices of liver of rat
(§2) Test method: Krebs-Ringer-Bicarbonate solution (1 ml) containing 1 mM of ^14 C-acetic acid and 10 μg/ml of the test substance was added to 100 mg of liver slices of rat, the air was substituted with a mixed gas (oxygen:carbon dioxide=95:5) and incubation was conducted at 37° C. for 2 hours. After completion of the reaction, 15% ethanolic solution of potassium hydroxide was added and saponification was conducted at 75° C. for 2 hours. A part of the saponified solution was subjected to a measurment of protein. Residual saponified solution was extracted with petroleum ether and the radioactivity of the petroleum ether layer was measured to determine the cholesterol synthesizing activity. The aqueous layer was acidified with 6N hydrochloric acid, extracted with petroleum ether and the radioactivity of the extract was measured to determine fatty acid synthesizing activity. The values were expressed in terms of percentage to the control after calculating the mol numbers (nmol/mg) of the ^14 C-acetic acid incorporated into each extract per protein (nmol/mg protein).

[2] = system: fatty acid synthesis (liver slices of rat); assay: lipid biosynthesis by tissue slices of liver of rat: fatty acid synthesis; assay type: cell-based; conditions: 10 μg/ml, percentage to the control; for activity at 10 µg/mL: Rattus norvegicus, 2 h, read-out: Fatty Acid Synth.; for Fatty Acid Synth.: 120 min
Method: as §1, §2

[3] = system: total cholesterol (TC) in serum; assay: lowering total cholesterol (TC) in serum using normal rhesus monkeys; assay type: in vivo; conditions: oral
Description: 1) An action of lowering total cholesterol (TC) in serum using normal rhesus monkeys. Test Method: Male rhesus monkeys of 2-5 years age (body weight: 3.0-6.4 kg; Experiment No.1) or male rhesus monkeys of 2-6 years age (body weight: 3.5-8.0 kg; Expt. Nos. 2, 3 and 4) were subjected to the experiments. During the experiment, solid feed (manufactured by Oriental Yeast) was given at the dose of 150 g once daily. Each group consisted of 2 to 6 monkeys. The substance to be tested was in a form of suspension in 0.5% methylcellulos solution. The suspension was given orally using rubber probe at the dose of 30, 50 or 100 mg/kg for seven days (Expt. Nos. 1 and 2(2)) or for 28 days (Expt. Nos. 2(1), 3 and 4). Blood was taken from saphena in lower limbs one week and immediately before the administration and also 7, 14, 21 and 28 days after the administration of the suspension whereby serum TC was measured. The change rate of serum TC was calculated by the following expression. The change rate of serum TC=(ATC-BTC)/BTC×100 In the expression, ATC is the TC after administration of the substance tested while BTC is the TC before the administration (average of those one week and immediately before the administration).

Lp(a) [4] = assay: Influence on Lp(a): lowering Lp(a) in plasma in crab-eating monkeys; assay type: in vivo; conditions: 0.3% in feed, average ± S.E.
Method: Five to six crab-eating monkeys (male; body weight ranging 5-9 kg) as one group were fed and, to the group administered with the test sample, the feed containing 0.3% of this invention compound (that of Example 4) was fed while, to the control group, usual feed was given. The Lp(a) concentrations in the plasma were measured by the following method at the initiation of the administration, 13 weeks thereafter and 5 weeks after completion of the administration.
Commercially-available kit manufactured by Biopool Co, was used. In accordance with the procedures as given in the kit, PET buffer and sample buffer were prepared. To 20 μl of the plasma was added 1 ml of sample buffer and to 10 μl or 20 μl the resulting diluted liquid was further added 1.01 ml or 1 ml of the sample buffer to that the liquid diluted to an extent of 5202 times or 2601 times was prepared. In accordance with the steps as instructed by the kit, each 20 μl of the diluted sample was added to each well and measurement was conducted by duplicate. The result was calculated from the working curve prepared from the data obtained for the standard human Lp(a) in the kit.

[5] = system: cholesterol synthesis (liver slices of rat); assay: lipid biosynthesis of tissue slices of liver of rat (part 2): cholesterol synthesis; assay type: cell-based; conditions: 2 h, 10 μg/ml, percentage to the control
Method: as §2
(§3) 6) Action of the compounds of the present invention to lipid biosynthesis of tissue slices of liver of rat (part 2)
(§4) The activity of the present invention compound was measured by the same manner as above 5). The values were expressed in terms of percentage to the control after calculating the mol numbers (nmol/mg) of the ^14 C-acetic acid incorporated into each extract per protein (nmol/mg protein).

Mice of ddY-strain = assay: Acute Toxicity; assay type: in vivo; conditions: oral, 2 g/kg
Method: Mice of ddY-strain (7 weeks age; four mice per group) were fasted overnight, the compound of Example 4 of the present invention suspended in 0.5% methylcellulose solution was orally administered at 2 g/kg and the general symptoms until 3 hours after that and those until one week thereafter were checked.

serum TC = assay: Serum TC lowering action in normal crab-eating macaques; assay type: in vivo
Description: 2) Serum TC lowering action in normal crab-eating macaques.
Test Method: Male crab-eating macaques (body weight: 2.5-6.6 kg) were subjected to the experiments. During the expriment period, the feed (manufactured by Oriental Yeast) containing 0.1% (Expt. No. 1) or 0.3% (Expt. No. 2) of the compound of Example 4 was given once daily a 35 g/kg for 5 weeks (0.1%) or for 8 weeks (0.3%). Usual feed for monkeys was given to the control group. Blood was taken immediately before the administration and 1, 2 and 5 weeks after the administration in the case of 0.1% mixed feed or, in the case of 0.3% mixed feed, immediately before and 2, 4, 6 and 8 weeks after the administration. All operations for taking blood were conducted prior to giving the feed and the serum TC therein was measured. The change rate of the serum TC was calculated by the following expression.
The change rate of serum TC=(ATC-BTC)/BTC×100
In the expression, ATC is the TC after administration of the substance tested and BTC is the TC immediately before administration.

[6] = system: fatty acid synthesis (liver slices of rat); assay: lipid biosynthesis of tissue slices of liver of rat (part 2): fatty acid synthesis; assay type: cell-based; conditions: 2 h, 10 μg/ml, percentage to the control
Method: as §2, §3, §4

Lp(a) [7] = conditions: J. Internal Medicine 226 271-276 (1989); cited from earlier work

Compound: CC(C)(C)c1ccc2oc(C(O)COc3ccc(C(=O)O)cc3)cc2c1 (single isomer, unassigned; (+)) [Example 11, (+)-5-tert-Butyl-2-[2-(4-carboxyphenoxy)-1-hydroxyethyl]benzofuran]
- activity at 10 µg/mL ([1]; Expt. 1): 35%
- activity at 10 µg/mL ([1]; Expt. 2): 24%
- activity at 10 µg/mL ([2]; Expt. 1): 12%
- activity at 10 µg/mL ([2]; Expt. 2): 18%

Compound: CC(C)(C)c1ccc2oc(C(O)COc3ccc(C(=O)O)cc3)cc2c1 (single isomer, unassigned; (-)) [Example 12, (-)-5-tert-Butyl-2-[2-(4-carboxyphenoxy)-1-hydroxyethyl]benzofuran]
- Cholesterol Synth. ([1]; Expt. 1): 33%
- Cholesterol Synth. ([1]; Expt. 2): 27%
- Fatty Acid Synth. ([2]; Expt. 1): 16%
- Fatty Acid Synth. ([2]; Expt. 2): 14%

Compound: CC(C)c1ccc2oc(C(O)COc3ccc(CO)cc3)cc2c1 (stereo not shown) [Example 10, 2-[1-Hydroxy-2-(4-hydroxymethylphenoxy)ethyl]-5-isopropylbenzofuran]
- TC Change Rate ([3]; 100 mg/kg, after 7 days): -32%

Compound: CC(C)c1ccc2oc(C(O)COc3ccc(C(=O)O)cc3)cc2c1 (stereo not shown) [Example 6, 2-[2-(4-Carboxyphenoxy)-1-hydroxyethyl]5-isopropylbenzofuran]
- TC Change Rate ([3]; 100 mg/kg, after 7 days): -42%

Compound: CC(C)(C)c1ccc2oc(C(O)COc3ccc(C(=O)O)cc3)cc2c1 (stereo not shown) [Example 4, 5-tert-Butyl-2-[2-(4-carboxyphenoxy)-1-hydroxyethyl]benzofuran]
- Plasma Lp(a) (Lp(a) [4]; 5 weeks after completion of administration): 60.1 ± 7.9 mg/dL
- Plasma Lp(a) (Lp(a) [4]; 13 weeks thereafter): 9.2 ± 1.2 mg/dL
- Plasma Lp(a) (Lp(a) [4]; Immed. after administration (text: at the initiation)): 73.2 ± 8.5 mg/dL
- activity at 10 µg/mL ([1]; Expt. 1): 41%
- activity at 10 µg/mL ([1]; Expt. 2): 27%
- activity at 10 µg/mL [5]: 61%
- Acute toxicity: deaths (Mice of ddY-strain; observed until one week): no animals tested were dead
- Acute toxicity: general symptoms (Mice of ddY-strain; until 3 hours and until one week thereafter): no abnormal symptoms were noticed
- TC Change Rate (serum TC; 0.1% in the feed, after 1 week): 16%
- TC Change Rate (serum TC; 0.1% in the feed, after 2 weeks): -18%
- TC Change Rate (serum TC; 0.1% in the feed, after 5 weeks): -31%
- TC Change Rate (serum TC; 0.3% in the feed, after 2 weeks): -32%
- TC Change Rate (serum TC; 0.3% in the feed, after 4 weeks): -46%
- TC Change Rate (serum TC; 0.3% in the feed, after 6 weeks): -42%
- TC Change Rate (serum TC; 0.3% in the feed, after 8 weeks): -37%
- activity at 10 µg/mL [6]: 29%
- activity at 10 µg/mL ([2]; Expt. 1): 20%
- activity at 10 µg/mL ([2]; Expt. 2): 12%

Compound: O=C(O)c1cccnc1 [Nicotinic acid]
- adverse reactions (Lp(a) [7]): flushing
- concentration of Lp(a) in blood (Lp(a) [7]): lowers the concentration of Lp(a) in blood

Compound: CC(C)c1ccc2oc(C(O)COc3ccc(C(=O)O)cc3)cc2c1 (stereo not shown) [Example 9, 2-[2-(4-Carboxyphenoxy)-1-hydroxyethyl]-5-isopropylbenzofuran calcium salt]
- TC Change Rate ([3]; 30 mg/kg, after 7 days): -19%
- TC Change Rate ([3]; 30 mg/kg, after 14 days): -34%
- TC Change Rate ([3]; 30 mg/kg, after 21 days): -29%
- TC Change Rate ([3]; 30 mg/kg, after 28 days): -24%

Compound: CC(C)(C)c1ccc2oc(C(=O)COc3ccc(C(=O)O)cc3)cc2c1 [Example 14, 5-tert-Butyl-2-(4-carboxyphenoxyacetyl)benzofuran]
- activity at 10 µg/mL [5]: 64%
- activity at 10 µg/mL [6]: 32%

Compound: CC(C)(Oc1ccc(CCNC(=O)c2ccc(Cl)cc2)cc1)C(=O)O [Bezafibrate, reference compound]
- TC Change Rate ([3]; 100 mg/kg, after 7 days): -13%
- TC Change Rate ([3]; 100 mg/kg, after 14 days): -10%
- TC Change Rate ([3]; 100 mg/kg, after 21 days): 3%
- TC Change Rate ([3]; 100 mg/kg, after 28 days): -7%

Compound: CC(=O)OC(COc1ccc(C(=O)O)cc1)c1cc2cc(C(C)C)ccc2o1 (stereo not shown) [Example 17, 2-[1-Acetoxy-2-(4-carboxyphenoxy)ethyl]-5-isopropylbenzofuran]
- activity at 10 µg/mL [5]: 66%
- activity at 10 µg/mL [6]: 33%

Compound: CC(C)c1ccc2oc(C(O)COc3ccc(C(=O)O)cc3)cc2c1 (stereo not shown) [Example 8, 2-[2-(4-Carboxyphenoxy)-1-hydroxyethyl]-5-isopropylbenzofuran sodium salt]
- TC Change Rate ([3]; 50 mg/kg, after 7 days): -31%
- TC Change Rate ([3]; 50 mg/kg, after 14 days): -31%
- TC Change Rate ([3]; 50 mg/kg, after 21 days): -44%
- TC Change Rate ([3]; 50 mg/kg, after 28 days): -51%

Reference: patent publication US5432195A, “Benzofuran derivative and pharmaceutical composition” (Nippon Shinyaku Company Limited, priority 1991, dated 1995)
